We go through 27 compounds from patent US20230024438A1, “INHIBITORS OF HIF-2ALPHA” (ARCUS BIOSCIENCES, INC., priority 2019, published 2023).

Experiment [1] addresses T1, Histidine tagged HIF-2α protein containing PAS-B domain (240-350) (Homo sapiens, UniProt Q99814).
T1 construct: Histidine tagged HIF-2α protein containing PAS-B domain (240-350) was prepared and purified in house; made in house
Briefly: HIF-2α Scintillation Proximity Assay (SPA). The class given is binding. The following applies: 50 nM HIF-2α protein, 25 nM radiolabeled tracer; read-out: HIF-2α Scintillation Proximity Assay. The procedure:
Tritium labeled compound N-(3-chlorophenyl)-4-nitro-2,1,3-benzoxadiazol-5-amine was obtained from American Radiolabeled Chemicals Inc. and copper chelate PVT SPA beads were from PerkinElmer (Cat #RPNQ0095). Histidine tagged HIF-2α protein containing PAS-B domain (240-350) was prepared and purified in house.
Compounds solubilized in DMSO were dispensed into a white 384-well polystyrene non-binding flat clear bottom plate (Greiner Bio-One, Cat #781903) using an HP D300 dispenser. Ten microliters of HIS-tagged HIF-2α protein in buffer (25 mM Tris-HCl, pH 7.4, 150 mM NaCl, 0.15% BSA and 0.001% Tween 20) was added to the compound wells and allowed to incubate for 1 hour at room temperature. Ten microliters of SPA bead mix were added to the wells and incubated for an additional 45 minutes, followed by 10 ul of ^3H-tracer solution. Final assay conditions comprised 50 nM HIF-2α protein, 25 nM radiolabeled tracer and 3 ug beads per well with compounds in 2% DMSO. The plate was read using a MicroBeta Microplate Counter (PerkinElmer) for luminescence detection. The IC50 values of the test compounds were determined from compound dose response curves fitted using a standard four parameter fit equation and are reported in Table 1.
Background: SPA uses beads or plates that emit light when radiolabelled molecules are held near them.

Experiment [2] concerns the target T2, HIF-2α (Homo sapiens, UniProt Q99814).
T2 construct: endogenous in cells; host or cells: 786-O cells (ATCC CRL-1932) stably carrying the Cignal Lenti HIF Luc Reporter
As to the kind of experiment: HIF-2α Luciferase Reporter Assay. The class given is cell-based. The settings on record: HIF-Luc-786-0 cells, 20 hours incubation, luciferase activity; read-out: HIF-2α Luciferase Assay. As for the experimental part:
Stable cell lines were generated by transducing 786-O cells (ATCC, CRL-1932) with Cignal Lenti HIF Luc Reporter lentivirus (CLS-007L, Qiagen) according to the manufacturer's guidelines. In brief, 0.3×10^6 786-0 cells were transduced with lentivirus at a Multiplicity of Infection (MOI) of 25 for 24 hours. After transduction, cells were replenished with fresh RPMI 1640 Medium (Cat. No. 11875085, Thermo Fisher,) supplemented with 10% FBS (Cat. No. A3160502, Gibco), 2 mM GlutaMax (Cat. No. 35050-061, Invitrogen) and 100 units of penicillin and 100 μg of streptomycin/mL (Cat. No 15070063, Thermo Fisher) for another 24 hours. Antibiotic selection was performed in cell media containing 4 μg/mL of Puromycin. After 7 days of antibiotic selection, stable pools of surviving cells were expanded and used in a luciferase reporter assay.
On day one, 20 uL of HIF-Luc-786-0 cells in OptiMem (Cat. No. 31985088, Thermo Fisher) were seeded into each well of a 384 well white opaque plate (Corning 3570) and incubated at 37° C. and 5% CO2. Twenty microliters of 2× test compounds in OptiMem were added to cells after 4 hours of incubation. Final assay conditions comprised 20,000 cells per well in 1% DMSO with test compound concentrations ranging from 50 uM to 0 uM. After 20 hours incubation at 37° C. and 5% CO2, luciferase activity was determined using ONE-Glo Luciferase Assay Reagent (E6110, Promega) following the manufacture's recommended procedure. Briefly, 40 uL of ONE-Glo luciferase reagents were added to each well and luciferase signals were measured using an Envision 2102 Multilabel Reader. Percentage maximum activity in each test well was calculated based on DMSO (maximum activity) and no cell control wells (baseline activity). The IC50 values of the test compounds were determined from compound dose response curves fitted using a standard four parameter fit equation.
(In general: Reporter assays use an easily measured gene product as a stand-in for the process of interest.)

Structures are written as SMILES. Where only a bound is given, the exact number is not on record here.

T2 sequence (Q99814 whole entry): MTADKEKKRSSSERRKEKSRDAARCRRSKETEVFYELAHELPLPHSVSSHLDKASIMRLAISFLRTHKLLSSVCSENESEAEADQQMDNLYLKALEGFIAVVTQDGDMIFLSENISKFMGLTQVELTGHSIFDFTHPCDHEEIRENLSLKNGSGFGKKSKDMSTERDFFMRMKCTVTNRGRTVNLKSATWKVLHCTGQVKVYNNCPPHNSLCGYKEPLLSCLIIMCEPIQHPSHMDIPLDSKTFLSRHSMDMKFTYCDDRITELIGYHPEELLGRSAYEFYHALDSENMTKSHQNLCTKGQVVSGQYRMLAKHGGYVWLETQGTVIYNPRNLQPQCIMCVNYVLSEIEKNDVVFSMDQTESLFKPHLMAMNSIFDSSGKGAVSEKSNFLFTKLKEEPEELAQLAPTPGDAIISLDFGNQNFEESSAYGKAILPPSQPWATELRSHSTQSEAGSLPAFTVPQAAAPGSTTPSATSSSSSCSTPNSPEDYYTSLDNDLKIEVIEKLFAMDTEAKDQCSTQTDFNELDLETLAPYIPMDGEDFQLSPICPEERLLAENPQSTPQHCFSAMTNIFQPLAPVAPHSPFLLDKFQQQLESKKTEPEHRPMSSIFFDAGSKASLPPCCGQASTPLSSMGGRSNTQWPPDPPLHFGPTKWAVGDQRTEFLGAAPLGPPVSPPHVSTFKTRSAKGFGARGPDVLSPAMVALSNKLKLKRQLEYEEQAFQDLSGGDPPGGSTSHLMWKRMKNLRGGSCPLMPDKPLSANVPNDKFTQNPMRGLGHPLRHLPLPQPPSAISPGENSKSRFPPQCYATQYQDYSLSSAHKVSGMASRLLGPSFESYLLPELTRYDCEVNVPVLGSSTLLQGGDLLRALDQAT
T1 sequence (Q99814 240-350): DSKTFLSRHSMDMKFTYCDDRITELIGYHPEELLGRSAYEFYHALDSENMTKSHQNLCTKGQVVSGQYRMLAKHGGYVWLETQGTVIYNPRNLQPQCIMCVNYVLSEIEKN

For `N#Cc1cc(Cl)cc(Oc2ccc(S(=O)(=O)C(F)(F)F)c3[nH]ncc23)c1` [Example 27, 3-Chloro-5-[[7-(trifluoromethylsulfonyl)-1H-indazol-4-yl]oxy]benzonitrile], the IC50 in experiment [1] is less than 1 µM; in experiment [2], 1 to 10 µM.
On to `O=S(=O)(c1ccc(Oc2cccc(Cl)c2)c2cn[nH]c12)C(F)(F)F` [Example 41, 4-(3-Chlorophenoxy)-7-(trifluoromethylsulfonyl)-1H-indazole], for which the IC50 in experiment [1] was less than 1 µM; in experiment [2], 1 to 10 µM.
In the same order, the values of `N#Cc1cc(F)cc(Oc2ccc(S(=O)(=O)C(F)F)c3[nH]nc(I)c23)c1` [Example 13, 5-[7-(Difluoromethylsulfonyl)-3-iodo-1H-indazol-4-yloxy]-3-fluorobenzonitrile] are greater than 10 µM and 1 to 10 µM.
In the same order, the values of `N#Cc1cc(Oc2ccc(S(=O)(=O)C(F)(F)F)c3[nH]ncc23)ccc1Cl` [Example 35, 2-Chloro-5-[[7-(trifluoromethylsulfonyl)-1H-indazol-4-yl]oxy]benzonitrile] are 1 to 10 µM and greater than 10 µM.
The like results for `COc1ccc(Oc2ccc(S(=O)(=O)C(F)(F)F)c3[nH]ncc23)cc1` [Example 20, 4-(p-Methoxyphenoxy)-7-(trifluoromethylsulfonyl)-1H-indazole] were, in that order, greater than 10 µM and greater than 10 µM.
With `N#Cc1cc(F)cc(Nc2ccc(C(F)(F)F)c3[nH]ncc23)c1` [Example 14, 3-Fluoro-5-[7-(trifluoromethyl)-1H-indazol-4-ylamino]benzonitrile], the IC50 in experiment [1] and in experiment [2] was 1 to 10 µM each time.
With `CS(=O)(=O)c1ccc(Oc2cc(F)cc(Cl)c2)c2cn[nH]c12` [Example 7, 4-(3-Chloro-5-fluorophenoxy)-7-methanesulfonyl-1H-indazole], the IC50 in experiment [1] and in experiment [2] was greater than 10 µM each time.
Consider `O=S(=O)(c1ccc(Oc2cccc(F)c2)c2cn[nH]c12)C(F)(F)F` [Example 31, 4-(3-Fluorophenoxy)-7-(trifluoromethylsulfonyl)-1H-indazole], for which the IC50 in experiment [1] and in experiment [2] was 1 to 10 µM in each case.
Turning to `CS(=O)(=O)c1ccc(Oc2cc(F)cc(C#N)c2)c2c(CO)n[nH]c12` [Example 11, 3-Fluoro-5-{[3-(hydroxymethyl)-7-methanesulfonyl-1H-indazol-4-yl]oxy}benzonitrile], the IC50 in experiment [1] was greater than 10 µM; in experiment [2], 1 to 10 µM.
Turning to `O=S(=O)(c1ccc(Nc2cc(F)cc(F)c2)c2cn[nH]c12)C(F)(F)F` [Example 46, (3,5-Difluorophenyl)[7-(trifluoromethylsulfonyl)-1H-indazol-4-yl]amine], the values for the IC50 in experiment [1] and in experiment [2] were 1 to 10 µM and greater than 10 µM, respectively.
The like results for `N#Cc1cc(F)cc(Oc2c(F)cc(S(=O)(=O)C(F)(F)F)c3[nH]ncc23)c1` [Example 64, 3-Fluoro-5-[(5-fluoro-7-trifluoromethanesulfonyl-1H-indazol-4-yl)oxy]benzonitrile] were, in that order, 1 to 10 µM and greater than 10 µM.
In the same order, the values of `N#Cc1cc(F)cc(Oc2ccc(S(=O)(=O)C(F)(F)F)c3[nH]nc(C#N)c23)c1` [Example 60, 4-(3-Cyano-5-fluorophenoxy)-7-trifluoromethanesulfonyl-1H-indazole-3-carbonitrile] are greater than 10 µM and 1 to 10 µM.
`O=S(=O)(c1ccc(Oc2cncc(Cl)c2)c2cn[nH]c12)C(F)(F)F` [Example 23, 4-[(5-Chloropyridin-3-yl)oxy]-7-trifluoromethanesulfonyl-1H-indazole]: the IC50 in experiment [1] and in experiment [2] was 1 to 10 µM in each case.
Regarding `O=S(=O)(c1ccc(Oc2ccc(Cl)c(F)c2)c2cn[nH]c12)C(F)(F)F` [Example 33, 4-(4-Chloro-3-fluorophenoxy)-7-(trifluoromethylsulfonyl)-1H-indazole], the IC50 in experiment [1] and in experiment [2] was greater than 10 µM throughout.
In the case of `O=S(=O)(c1ccc(NCc2ccc(F)cc2C(F)(F)F)c2cn[nH]c12)C(F)(F)F` [Example 55, N-[[4-fluoro-2-(trifluoromethyl)phenyl]methyl]-7-(trifluoromethylsulfonyl)-1H-indazol-4-amine], the IC50 in experiment [1] and in experiment [2] was greater than 10 µM each time.
Regarding `O=S(=O)(c1ccc(Nc2cc(F)cc(Cl)c2)c2cn[nH]c12)C(F)(F)F` [Example 47, (3-Chloro-5-fluorophenyl)[7-(trifluoromethylsulfonyl)-1H-indazol-4-yl]amine], the IC50 in experiment [1] was 1 to 10 µM; in experiment [2] it was greater than 10 µM.
Turning to `O=S(=O)(c1ccc(Oc2ccc(F)c(Cl)c2)c2cn[nH]c12)C(F)(F)F` [Example 38, 4-(3-Chloro-4-fluorophenoxy)-7-(trifluoromethylsulfonyl)-1H-indazole], the IC50 in experiment [1] and in experiment [2] was 1 to 10 µM throughout.
As for `O=S(=O)(c1ccc(Oc2ccc(F)c(F)c2)c2cn[nH]c12)C(F)(F)F` [Example 37, 4-(3,4-Fifluorophenoxy)-7-(trifluoromethylsulfonyl)-1H-indazole], the IC50 in experiment [1] and in experiment [2] was 1 to 10 µM each time.
Regarding `CS(=O)(=O)c1ccc(Oc2cc(F)cc(C#N)c2)c2c(C#N)n[nH]c12` [Example 10, 4-(3-Cyano-5-fluorophenoxy)-7-methanesulfonyl-1H-indazole-3-carbonitrile], the results for the IC50 in experiment [1] and in experiment [2] were greater than 10 µM and 1 to 10 µM, respectively.
As for `O=S(=O)(c1ccc(Oc2cc(F)cc(Cl)c2)c2cn[nH]c12)C(F)(F)F` [Example 40, 4-(3-Chloro-5-fluorophenoxy)-7-(trifluoromethylsulfonyl)-1H-indazole], the figures for the IC50 in experiment [1] and in experiment [2] were less than 1 µM and 1 to 10 µM, respectively.
In the same order, the values of `N#Cc1cccc(Oc2ccc(S(=O)(=O)C(F)(F)F)c3[nH]ncc23)c1` [Example 42, 3-[[7-(Trifluoromethylsulfonyl)-1H-indazol-4-yl]oxy]benzonitrile] are less than 1 µM and 1 to 10 µM.
In the case of `O=S(=O)(c1ccc(NCc2ccc(F)cc2)c2cn[nH]c12)C(F)(F)F` [Example 52, N-[(4-fluorophenyl)methyl]-7-(trifluoromethylsulfonyl)-1H-indazol-4-amine], the IC50 in experiment [1] and in experiment [2] was greater than 10 µM each time.
For the compound `O=S(=O)(c1ccc(Cc2cccc(Cl)c2)c2cn[nH]c12)C(F)(F)F` [Example 59, 4-[(3-Chlorophenyl)methyl]-7-trifluoromethanesulfonyl-1H-indazole], the IC50 is greater than 10 µM in experiment [1] and 1 to 10 µM in experiment [2].
In the same order, the values of `Cc1cc(C#N)cc(Oc2ccc(S(=O)(=O)C(F)(F)F)c3[nH]ncc23)c1` [Example 28, 3-Methyl-5-[[7-(trifluoromethylsulfonyl)-1H-indazol-4-yl]oxy]benzonitrile] are 1 to 10 µM and 1 to 10 µM.
In the same order, the values of `N#Cc1cc(Oc2ccc(S(=O)(=O)C(F)(F)F)c3[nH]ncc23)cc(C(F)(F)F)c1` [Example 39, 3-(Trifluoromethyl)-5-[[7-(trifluoromethylsulfonyl)-1H-indazol-4-yl]oxy]benzonitrile] are 1 to 10 µM and 1 to 10 µM.
For `CS(=O)(=O)c1ccc(Oc2ccc(F)cc2F)c2cn[nH]c12` [Example 4, 4-(2,4-Difluorophenoxy)-7-methanesulfonyl-1H-indazole], the IC50 in experiment [1] and in experiment [2] was greater than 10 µM each time.
As for `N#Cc1cc(F)cc(Oc2ccc(S(=O)(=O)C(F)(F)F)c3[nH]nc(Cl)c23)c1` [Example 61, 3-[(3-Chloro-7-trifluoromethanesulfonyl-1H-indazol-4-yl)oxy]-5-fluorobenzonitrile], the IC50 was less than 1 µM in experiment [1] and greater than 10 µM in experiment [2].
